Our source for the melting point, IC50 and inhibition values is US8263606B2 (Xenon Pharmaceuticals Inc., priority 2008, dated 2012).

Where only a bound is given, the exact number is not on record here.

One series relates to sodium channel. Briefly: Guanidine influx assay (14C-guanidine radiotracer flux, in vitro). It counts as cell-based, human or rat. Particulars: guanidine influx assay using a known cell line that expresses a sodium channel; activity level class. In outline:
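IC50 derives from a four-parameter logistic fit of 14C-guanidine uptake, test agent serially half-diluted around a 1 μM midpoint. Flux was driven by aconitine in low-sodium HEPES/choline saline at ambient temperature, using endogenous or recombinant human or rat sodium-channel cell lines plated ~100,000/well for 20–24 h.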

The target in a further series is CYP3A4 (Homo sapiens, UniProt P08684). Briefly: Cytochrome P450 (CYP450) Inhibition Assay, CYP3A4 (Vivid fluorescence, BOMCC substrate). The conditions noted are these: human, P450 Baculosomes (recombinant CYP3A4), probe BOMCC (Vivid substrate).
CYP3A4, sequence (P08684 whole entry): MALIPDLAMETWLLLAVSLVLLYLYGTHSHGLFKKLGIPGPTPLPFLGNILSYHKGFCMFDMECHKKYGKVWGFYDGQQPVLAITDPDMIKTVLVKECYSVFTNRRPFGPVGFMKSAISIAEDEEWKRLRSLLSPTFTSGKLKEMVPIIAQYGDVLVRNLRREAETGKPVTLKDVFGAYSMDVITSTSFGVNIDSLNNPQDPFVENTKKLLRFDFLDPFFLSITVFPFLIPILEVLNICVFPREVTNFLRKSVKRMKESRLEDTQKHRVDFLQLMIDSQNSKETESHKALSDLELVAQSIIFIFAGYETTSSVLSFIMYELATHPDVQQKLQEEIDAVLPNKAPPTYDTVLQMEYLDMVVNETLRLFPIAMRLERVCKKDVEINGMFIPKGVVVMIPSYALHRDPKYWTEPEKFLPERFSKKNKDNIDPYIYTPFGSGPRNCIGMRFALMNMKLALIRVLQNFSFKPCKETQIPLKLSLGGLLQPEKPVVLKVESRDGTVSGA

For orientation: melting point means the temperature of the solid-liquid transition. One may read the IC50 as the point on the concentration scale where inhibition reaches its midpoint. In general, inhibition refers to the change of the read-out against control, counted positive when it falls. In turn, `O=C1OCCN1CCN1C(=O)C2(COc3cc4c(cc32)CCO4)c2ccccc21` (stereo not drawn) [Example 9.3, 1′-[2-(2-oxo-1,3-oxazolidin-3-yl)ethyl]-5,6-dihydrospiro[benzo[1,2-b:5,4-b′]difuran-3,3′-indol]-2′(1′H)-one] gave a melting point of 185 to 186 °C. Also, the IC50 in the series on sodium channel lay within 1000 to 10000 nM. Further, the inhibition at 10 µM on CYP3A4 is greater than 50%.

The compound `O=C1N(Cc2ccc(-c3ccccn3)cc2)c2ccccc2C12COc1cc3c(cc12)CCO3` (stereo not drawn) [Example 9.4, 1-(4-pyridin-2-ylbenzyl)-5,6-dihydrospiro[benzo[1,2-b:5,4-b′]difuran-3,3′-indol]-2′(1′H)-one] returned a melting point of 217 to 219 °C. In the series with sodium channel, the IC50 was 100 to 1000 nM. On CYP3A4, the inhibition at 10 µM is less than 50%.

As to `O=C1N(Cc2ncccn2)c2ccccc2C12COc1cc3c(cc12)CCO3` (stereo not drawn) [Example 9.5, 1′-(pyrimidin-2-ylmethyl)-5,6-dihydrospiro[benzo[1,2-b:5,4-b′]difuran-3,3′-indol]-2′(1′H)-one], the melting point was 203 to 205 °C. Moreover, the IC50 with sodium channel lay in the range of 1 to 100 nM. Besides, on CYP3A4, the inhibition at 10 µM is less than 50%.

In the case of `O=C1N(Cc2cnccn2)c2ccccc2C12COc1cc3c(cc12)CCO3` (stereo not drawn) [Example 9.7, 1′-(pyrazin-2-ylmethyl)-5,6-dihydrospiro[benzo[1,2-b:5,4-b′]difuran-3,3′-indol]-2′(1′H)-one], the melting point lay within 143 to 144 °C. Also, the IC50 in the series on sodium channel was 1 to 100 nM. Further, the inhibition at 10 µM on CYP3A4 is less than 50%.

The compound `O=C1N(Cc2cc3cccc(F)c3o2)c2ccccc2C12COc1cc3c(cc12)CCO3` (stereo not drawn) [Example 9.8, 1′-[(7-fluoro-1-benzofuran-2-yl)methyl]-5,6-dihydrospiro[benzo[1,2-b:5,4-b′]difuran-3,3′-indol]-2′(1′H)-one] came in with a melting point of 192 to 193 °C. Further, the IC50 with sodium channel lay within 1 to 100 nM. The inhibition at 10 µM at CYP3A4 was greater than 50%.

Compound `O=C1N(Cc2cccnn2)c2ccccc2C12COc1cc3c(cc12)CCO3` (stereo not drawn) [Example 9.9, 1′-(pyridazin-3-ylmethyl)-5,6-dihydrospiro[benzo[1,2-b:5,4-b′]difuran-3,3′-indol]-2′(1′H)-one] gave a melting point of 81 to 82 °C. In addition, the IC50 with sodium channel is 100 to 1000 nM. Also, the inhibition at 10 µM on CYP3A4 was less than 50%.

The compound `O=C1NCC(CN2C(=O)C3(COc4cc5c(cc43)CCO5)c3ccccc32)O1` (stereo not drawn) [Example 9.10, 1′-[(2-oxo-1,3-oxazolidin-5-yl)methyl]-5,6-dihydrospiro[benzo[1,2-b:5,4-b′]difuran-3,3′-indol]-2′(1′H)-one] returned a melting point of 197 to 198 °C. In the series on sodium channel, the IC50 fell in the range of 1000 to 10000 nM. The inhibition at 10 µM on CYP3A4 was less than 50%.

The compound `O=C1N(Cc2cccc(OCc3ccccc3)c2)c2ccccc2C12COc1cc3c(cc12)CCO3` (stereo not drawn) [Example 9.11, 1′-[3-(benzyloxy)benzyl]-5,6-dihydrospiro[benzo[1,2-b:5,4-b′]difuran-3,3′-indol]-2′(1′H)-one] displayed a melting point of 66 to 68 °C. Further, the IC50 in the series with sodium channel lay in the range of 100 to 1000 nM. Moreover, the inhibition at 10 µM on CYP3A4 was less than 50%.

`Cn1c(CN2C(=O)C3(COc4cc5c(cc43)CCO5)c3ccccc32)nc2ccccc21` (stereo not drawn) [Example 9.12, 1′-[(1-methyl-1H-benzimidazol-2-yl)methyl]-5,6-dihydrospiro[benzo[1,2-b:5,4-b′]difuran-3,3′-indol]-2′(1′H)-one] registered a melting point of 244 to 246 °C. Also, the IC50 with sodium channel is 100 to 1000 nM. On CYP3A4, the inhibition at 10 µM is greater than 50%.

Regarding `O=C1N(Cn2nc3ccccc3n2)c2ccccc2C12COc1cc3c(cc12)CCO3` (stereo not drawn) [Example 9.13, 1′-(2H-benzotriazol-2-ylmethyl)-5,6-dihydrospiro[benzo[1,2-b:5,4-b′]difuran-3,3′-indol]-2′(1′H)-one], the melting point was 102 to 105 °C. In addition, in the series with sodium channel, the half-maximal inhibitory concentration (IC50) is 1 to 100 nM. On CYP3A4, the inhibition at 10 µM was greater than 50%.

`COC(=O)c1cccc(CN2C(=O)C3(COc4cc5c(cc43)CCO5)c3ccccc32)c1` (stereo not drawn) [Example 9.15, methyl 3-[(2′-oxo-5,6-dihydrospiro[benzo[1,2-b:5,4-b′]difuran-3,3′-indol]-1′(2′H)-yl)methyl]benzoate] came in with a melting point of 97 to 98 °C. Besides, the half-inhibitory concentration (IC50) in the series on sodium channel was 1 to 100 nM. The inhibition at 10 µM at CYP3A4 is greater than 50%.

On to `COC(=O)c1ccc(CN2C(=O)C3(COc4cc5c(cc43)CCO5)c3ccccc32)cc1` (stereo not drawn) [Example 9.16, methyl 4-[(2′-oxo-5,6-dihydrospiro[benzo[1,2-b:5,4-b′]difuran-3,3′-indol]-1′(2′H)-yl)methyl]benzoate], for which the melting point lay in the range of 136 to 140 °C. Also, the IC50 in the series on sodium channel lay in the range of 1 to 100 nM. Also, the inhibition at 10 µM at CYP3A4 is less than 50%.

`O=C1N(CCCOCc2ccccc2)c2ccccc2C12COc1cc3c(cc12)CCO3` (stereo not drawn) [Example 9.17, 1′-[3-(benzyloxy)propyl]-5,6-dihydrospiro[benzo[1,2-b:5,4-b′]difuran-3,3′-indol]-2′(1′H)-one] registered a melting point of 112 to 113 °C. Further, the IC50 in the series with sodium channel was in the range of 100 to 1000 nM. Besides, the inhibition at 10 µM on CYP3A4 was greater than 50%.

As for `O=C1N(C[C@H]2CCCO2)c2ccc(F)cc2C12COc1cc3c(cc12)CCO3` (stereo partly drawn) [Example 9.18, 5′-fluoro-1′-[(2R)-tetrahydrofuran-2-ylmethyl]-5,6-dihydrospiro[benzo[1,2-b:5,4-b′]difuran-3,3′-indol]-2′(1′H)-one], the melting point lay in the range of 167 to 169 °C. For the same compound, the IC50 with sodium channel lay within 100 to 1000 nM. Also, the inhibition at 10 µM at CYP3A4 was greater than 50%.

For the compound `O=C1N(C[C@H]2CCCO2)c2cc(F)ccc2C12COc1cc3c(cc12)CCO3` (stereo partly drawn) [Example 9.19, 6′-fluoro-1′-[(2R)-tetrahydrofuran-2-ylmethyl]-5,6-dihydrospiro[benzo[1,2-b:5,4-b′]difuran-3,3′-indol]-2′(1′H)-one], the melting point was 137 to 139 °C. The IC50 in the series with sodium channel is 100 to 1000 nM. At CYP3A4, the inhibition at 10 µM was less than 50%.

In turn, `Cc1nc2cc3c(cc2s1)C1(CO3)C(=O)N(Cc2ccccn2)c2ccccc21` (stereo not drawn) [Example 9.21, 2-methyl-1′-(pyridin-2-ylmethyl)spiro[furo[2,3-f][1,3]benzothiazole-7,3′-indol]-2′(1′H)-one] came in with a melting point of 249 to 250 °C. Also, the IC50 in the series on sodium channel is 1000 to 10000 nM. At CYP3A4, the inhibition at 10 µM is less than 50%.

Compound `Cc1nc2cc3c(cc2s1)C1(CO3)C(=O)N(Cc2ncc(Cl)n2C)c2ccccc21` (stereo not drawn) [Example 9.22, 1′-[(5-chloro-1-methyl-1H-imidazol-2-yl)methyl]-2-methylspiro[furo[2,3-f][1,3]benzothiazole-7,3′-indol]-2′(1′H)-one] showed a melting point of 177 to 178 °C. Besides, in the series on sodium channel, the IC50 was 1000 to 10000 nM. Moreover, the inhibition at 10 µM at CYP3A4 was greater than 50%.

`Cc1noc2cc3c(cc12)C1(CO3)C(=O)N(Cc2cccnc2)c2ccccc21` (stereo not drawn) [Example 9.25, 3-methyl-1′-(pyridin-3-ylmethyl)spiro[furo[3,2-f][1,2]benzisoxazole-5,3′-indol]-2′(1′H)-one] returned a melting point of 176 to 177 °C. In the series on sodium channel, the 50% inhibitory concentration (IC50) lay in the range of 1 to 100 nM. Besides, the inhibition at 10 µM at CYP3A4 was greater than 50%.

As for `Cc1noc2cc3c(cc12)C1(CO3)C(=O)N(C[C@H]2CCCO2)c2ccccc21` (stereo partly drawn) [Example 9.26, 3-methyl-1′-[(2R)-tetrahydrofuran-2-ylmethyl]spiro[furo[3,2-f][1,2]benzisoxazole-5,3′-indol]-2′(1′H)-one], the melting point was in the range of 134 to 135 °C. Further, in the series with sodium channel, the IC50 fell in the range of 100 to 1000 nM. Also, the inhibition at 10 µM on CYP3A4 was less than 50%.

Take `Cc1cc2c(cc1C)C1(CO2)C(=O)N(CC2CCOCC2)c2ccccc21` (stereo not drawn) [Example 9.27, 5,6-dimethyl-1′-(tetrahydro-2H-pyran-4-ylmethyl)spiro[1-benzofuran-3,3′-indol]-2′(1′H)-one]: the melting point was 199 to 201 °C. For the same compound, the IC50 with sodium channel is 1000 to 10000 nM. Further, the inhibition at 10 µM on CYP3A4 was greater than 50%.

With `Cc1cc2c(cc1C)C1(CO2)C(=O)N(Cc2ccccn2)c2ccccc21` (stereo not drawn) [Example 9.28, 5,6-dimethyl-1′-(pyridin-2-ylmethyl)spiro[1-benzofuran-3,3′-indol]-2′(1′H)-one], the melting point was 165 to 168 °C. Moreover, the IC50 in the series with sodium channel is 100 to 1000 nM. Moreover, the inhibition at 10 µM on CYP3A4 is less than 50%.

`COc1cc2c(cc1F)C1(CO2)C(=O)N(Cc2ccc(C(F)(F)F)o2)c2ccccc21` (stereo not drawn) [Example 9.30, 5-fluoro-6-methoxy-1′-{[5-(trifluoromethyl)furan-2-yl]methyl}spiro[1-benzofuran-3,3′-indol]-2′(1′H)-one] gave a melting point of 45 to 47 °C. Further, the IC50 with sodium channel lay within 100 to 1000 nM. Besides, the inhibition at 10 µM at CYP3A4 is greater than 50%.

As to `O=C1N(Cc2cccnc2)c2ccccc2C12COc1cc(F)c(F)cc12` (stereo not drawn) [Example 9.31, 5,6-difluoro-1′-(pyridin-3-ylmethyl)spiro[1-benzofuran-3,3′-indol]-2′(1′H)-one], the melting point fell in the range of 175 to 177 °C. Moreover, in the series with sodium channel, the IC50 lay within 1000 to 10000 nM. Further, the inhibition at 10 µM on CYP3A4 is greater than 50%.

In turn, `COc1ccc2c(c1)OCC21C(=O)N(Cc2ccccn2)c2ccccc21` (stereo not drawn) [Example 9.33, 6-methoxy-1′-(pyridin-2-ylmethyl)-2H-spiro[benzofuran-3,3′-indolin]-2′-one] returned a melting point of 122 to 123 °C. Moreover, in the series with sodium channel, the IC50 is 1 to 100 nM. At CYP3A4, the inhibition at 10 µM was less than 50%.

Turning to `COc1ccc2c(c1)OCC21C(=O)N(Cc2cccnc2)c2ccccc21` (stereo not drawn) [Example 9.34, 6-methoxy-1′-(pyridin-3-ylmethyl)spiro[1-benzofuran-3,3′-indol]-2′(1′H)-one], the melting point was 164 to 165 °C. For the same compound, in the series with sodium channel, the IC50 is 1 to 100 nM. The inhibition at 10 µM on CYP3A4 is greater than 50%.
